In patent US12157730B2, “Heteroaryl derivative, method for producing same, and pharmaceutical composition comprising same as effective component” (VORONOI INC., priority 2019, dated 2024):

target: T1, Ba/F3 cell EGFR Exon20 ins NPH (Homo sapiens, UniProt P00533, INS773NPH); test: Ba/F3 cell proliferation suppression, EGFR Exon20 ins NPH; type: cell-based; details: GI50 class; Ba/F3 cell line with NPH inserted at Exon20 of EGFR; 72 hours
T1 construct: expressed in transfected cells; host or cells: Ba/F3
Outline: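 Seed 3000–5000 cells/well; after 24 h add compound (12 conc., 0.3 nM–50 um final); incubate 72 h; add CellTiter-Glo, 10 min room temperature; read luminescence; GI50 from % growth vs control, triplicate.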

Ba/F3 (NPH) Activity, A (GI50 < 50 nM):
C=CC(=O)Nc1cc(Nc2cc(N3OCC[C@@H]3c3cccc(F)c3)ncn2)c(OC)cc1N1CCC(N2CC[C@H](N(C)C)C2)CC1 [compound 744, N-(2-(4-((S)-3-(dimethylamino)pyrolidine-1-yl)piperidine-1-yl)-5-((6-((R)-3-(3-fluorophenyl)isoxazolidine-2-yl)pyrimidine-4-yl)amino)-4-methoxyphenyl) acrylamide]
C=CC(=O)Nc1cc(Nc2cc(N3OCC[C@@H]3c3cc(F)cc(F)c3)ncn2)c(OC)cc1N1CCC(N2CCN(C)[C@@H](C)C2)CC1 [compound 760, N-(5-((6-((R)-3-(3,5-difluorophenyl)isoxazolidine-2yl)pyrimidine-4-yl)amino)-2-(4-((S)-3,4-dimethylpiperazine-1-yl)piperidine-1-yl)-4-methoxyphenyl) acrylamide]
C=CC(=O)Nc1cc(Nc2cc(N3OCC[C@@H]3Cc3cccc(Cl)c3Cl)ncn2)c(OC)cc1N1CCC(N2CCOCC2)CC1 [compound 979, N-(5-((6-((S)-3-(2,3-dichlorobenzyl)isoxazolidine-2-yl)pyrimidine-4-yl)amino)-4-methoxy-2-(4-morpholinopiperidine-1-yl)phenyl)acrylamide]
C=CC(=O)Nc1cc(Nc2cc(N3OCC[C@@H]3c3cccc(F)c3)ncn2)c(OC)cc1N1CC[C@H](N(C)C)C1 [compound 839, N-(2-((S)-3-(dimethylamino)pyrolidine-1-yl)-5-((6-((R)-3-(3-fluorophenyl)isoxazolidine-2-yl)pyrimidine-4-yl)amino)-4-methoxyphenyl) acrylamide]
C=CC(=O)Nc1cc(Nc2cc(N3OCC[C@@H]3c3ccc(F)c(Cl)c3)ncn2)c(OC)cc1N1CCC(N2CCO[C@H](C)C2)CC1 [compound 874, N-(5-((6-((R)-3-(3-chloro-4-fluorophenyl)isoxazolidine-2-yl)pyrimidine-4-yl)amino)-4-methoxy-2-(4-((R)-2-methylmorpholino)piperidine-1-yl)phenyl) acrylamide]
C=CC(=O)Nc1cc(Nc2cc(N3OCC[C@@H]3Cc3ccccc3)ncn2)c(OC)cc1N1C[C@@H]2C[C@H]1CO2 [compound 962, N-(5-((6-((S)-3-benzylisoxazolidine-2-yl)pyrimidine-4-yl)amino)-2-((1S,4S)-2-oxa-5-azabicyclo [2.2.1]heptane-5-yl)-4-methoxyphenyl) acrylamide]
C=CCN1CCN(C2CCN(c3cc(OC)c(Nc4cc(N5OCC[C@@H]5c5cc(F)cc(Cl)c5)ncn4)cc3NC(=O)C=C)CC2)CC1 [Example 214, N-(2-(4-(4-allylpiperazine-1-yl)piperidine-1-yl)-5-((6-((R)-3-(3-chloro-5-fluorophenyl)isoxazolidine-2-yl)pyrimidine-4-yl)amino)-4-methoxyphenyl) acrylamide]
C=CC(=O)Nc1cc(Nc2cc(N3OCC[C@@H]3c3cc(F)cc(Cl)c3)ncn2)c(OC)cc1N1CCC(N2C[C@@H]3C[C@H]2CO3)CC1 [compound 592, N-(2-(4-((1S,4S)-2-oxa-5-azabicyclo[2.2.1]heptane-5-yl)piperidine-1-yl)-5-((6-((R)-3-(3-chloro-5-fluorophenyl)isoxazolidine-2-yl)pyrimidine-4-yl)amino)-4-methoxyphenyl) acrylamide]
C=CC(=O)Nc1cc(Nc2cc(N3OCC[C@@H]3c3cc(F)cc(F)c3)ncn2)c(OC)cc1N1CCC(N2C[C@@H]3C[C@H]2CN3C)CC1 [Example 260, N-(5-((6-((R)-3-(3,5-difluorophenyl)isoxazolidine-2-yl)pyrimidine-4-yl)amino)-4-methoxy-2-(4-((1S,4S)-5-methyl-2,5-diazabicyclo[2.2.1]heptane-2-yl)piperidine-1-yl)phenyl)acrylamide]
C=CC(=O)Nc1cc(Nc2cc(N3OCC[C@@H]3c3ccc(F)c(Cl)c3F)ncn2)c(OC)cc1N1CCC(N2CCN(C)CC2)CC1 [compound 605, N-(5-((6-((R)-3-(3-chloro-2,4-difluorophenyl)isoxazolidine-2-yl)pyrimidine-4-yl)amino)-4-methoxy-2-(4-(4-methylpiperazine-1-yl)piperidine-1-yl)phenyl) acrylamide]
C=CC(=O)Nc1cc(Nc2cc(N3OCC[C@@H]3c3cccc(F)c3Cl)ncn2)c(OC)cc1N1CCC(N2CCN(C)CC2)CC1 [compound 560, N-(5-((6-((R)-3-(2-chloro-3-fluorophenyl)isoxazolidine-2-yl)pyrimidine-4-yl)amino)-4-methoxy-2-(4-(4-methylpiperazine-1-yl)piperidine-1-yl)phenyl) acrylamide]
C=CC(=O)Nc1cc(Nc2cc(N3OCC[C@@H]3Cc3ccccc3)ncn2)c(OC)cc1N1CCN(CCN(C)C)CC1 [compound 961, N-(5-((6-((S)-3-benzylisoxazolidine-2-yl)pyrimidine-4-yl)amino)-2-(4-(2-(dimethylamino)ethyl)piperazine-1-yl)-4-methoxyphenyl) acrylamide]
C=CC(=O)Nc1cc(Nc2cc(N3OCC[C@@H]3Cc3ccccc3)ncn2)c(OC)cc1N1CCN(CC)CC1 [compound 946, N-(5-((6-((S)-3-benzylisoxazolidine-2-yl)pyrimidine-4-yl)amino)-2-(4-ethylpiperazine-1-yl)-4-methoxyphenyl) acrylamide]
C=CC(=O)Nc1cc(Nc2cc(N3OCC[C@@H]3Cc3ccccc3)ncn2)c(OC)cc1N1CCN(C2CCOCC2)CC1 [compound 971, N-(5-((6-((S)-3-benzylisoxazolidine-2-yl)pyrimidine-4-yl)amino)-4-methoxy-2-(4-(tetrahydro-2H-pyran-4-yl)piperazine-1-yl)phenyl) acrylamide]
C#Cc1cccc([C@H]2CCON2c2cc(Nc3cc(NC(=O)C=C)c(N4CCC(N5CCN(C6CC6)CC5)CC4)cc3OC)ncn2)c1 [Example 165, N-(2-(4-(4-cyclopropylpiperazine-1-yl)piperidine-1-yl)-5-((6-((R)-3-(3-ethynylphenyl)isoxazolidine-2-yl)pyrimidine-4-yl)amino)-4-methoxyphenyl) acrylamide]
C=CC(=O)Nc1cc(Nc2cc(N3OCC[C@@H]3c3ccc(F)c(Cl)c3)ncn2)c(OC)cc1N(C)CCN(C)C [compound 701, N-(5-((6-((R)-3-(3-chloro-4-fluorophenyl)isoxazolidine-2-yl)pyrimidine-4-yl)amino)-2-((2-(dimethylamino)ethyl)(methyl)amino)-4-methoxyphenyl) acrylamide]

Ba/F3 (NPH) Activity, B (50 nM ≤ GI50 < 500 nM):
C=CC(=O)Nc1cc(Nc2cc(N3OCC[C@@H]3c3ccc(C)nc3)ncn2)c(OC)cc1N1CCC(N2CCN(CC)CC2)CC1 [Example 41, N-(2-(4-(4-ethylpiperazine-1-yl)piperidine-1-yl)-4-methoxy-5-((6((R)-3-(6-methylpyridine-3-yl)isoxazolidine-2-yl)pyrimidine-4-yl)amino)phenyl) acrylamide]
C=CC(=O)Nc1cc(Nc2cc(N3OCC[C@@H]3c3cccc(C#N)c3)ncn2)c(OC)cc1N1CCC(N2C[C@@H]3C[C@H]2CO3)CC1 [compound 493, N-(2-(4-((1S,4S)-2-oxa-5-azabicyclo[2.2.1]heptane-5-yl)piperidine-1-yl)-5-((6-((R)-3-(3-cyanophenyl)isoxazolidine-2-yl)pyrimidine-4-yl)amino)-4-methoxyphenyl) acrylamide]
C=CC(=O)Nc1cc(Nc2cc(N3OCC[C@@H]3c3c(F)ccc(F)c3F)ncn2)c(OC)cc1N1CC[C@@H](N(C)C)C1 [compound 630, N-(2-((R)-3-(dimethylamino)pyrolidine-1-yl)-4-methoxy-5-((6-((R)-3-(2,3,6-trifluorophenyl)isoxazolidine-2-yl)pyrimidine-4-yl)amino)phenyl)acrylamide]
C=CC(=O)Nc1cc(Nc2cc(N3OCC[C@@H]3c3cccc(Cl)c3Cl)ncn2)c(OC)cc1N1CCC(N(C)CCN(C)C)CC1 [compound 613, N-(5-((6-((R)-3-(2,3-dichlorophenyl)isoxazolidine-2-yl)pyrimidine-4-yl)amino)-2-(4-((2-(dimethylamino)ethyl) (methyl)aino)piperidine-1-yl)-4-methoxyphenyl) acrylamide]
C=CC(=O)Nc1cc(Nc2cc(N3OCC[C@@H]3c3ccc(Cl)cc3)ncn2)c(OC)cc1N1CC[C@H](N2CCOCC2)C1 [compound 734, N-(5-((6-((R)-3-(4-chlorophenyl)isoxazolidine-2-yl)pyrimidine-4-yl)amino)-4-methoxy-2-((S)-3-morpholinopyrolidine-1-yl)phenyl)acrylamide]
C=CC(=O)Nc1cc(Nc2cc(N3OCC[C@@H]3c3cccc(C#N)c3)ncn2)c(OC)cc1N1CCC(N2CC[C@@H](N(C)C)C2)CC1 [compound 492, N-(5-((6-((R)-3-(3-cyanophenyl)isoxazolidine-2-yl)pyrimidine-4-yl)amino)-2-(4-((R)-3-(dimethylamino)pyrolidine-1-yl)piperidine-1-yl)-4-methoxyphenyl) acrylamide]
